Experiments:
Format in all cases: physicochemical
[1] = Stability testing of capsules at 25° C./60% RH in water impermeable blister pack
Text: (§1) In some embodiments, the method disclosed herein comprises storing (keeping) a sample of the pharmaceutical product for a period of time, preferably under selected conditions of temperature and humidity. The amount (or concentration) of tasquinimod and of at least one of compounds I, II, III and IV in the sample may preferably be determined at the beginning or before the storage period and at the end of the storage period. The selected storage conditions may include a temperature in the range of, for example, 20° C. to 40° C., and a relative humidity in the surrounding atmosphere in the range of, for example, 30% to 75%; e.g. 25° C. and 60% RH, or 30° C. and 65% RH, or 35° C. and 70% RH, or 40° C. and 75% RH. The storage period may extend over a time period in the range of, for example, several weeks to several years. For example, the stability testing period (“storage period”) may be 2 weeks, 3 weeks, 1 month, 2 months, 3 months, 4 months, 5 months, 6 months, 9 months, 1 year, 18 months, 2 years, 3 years, 4 years or even 5 years or longer. A shorter storage period may be selected by use of higher storage temperature and/or higher relative humidity (RH). The total amount of a tasquinimod decomposition product in the sample at the end of the storage period may be determined by, for example, HPLC.
The batch of capsules manufactured in Example 19 was assessed by determining the amount of tasquinimod and the amount of each one of compounds I, II, III and IV in a sample of the capsules at the end of a 3-month stability testing, whereby the criterion for approving the batch was that the capsules of the sample, at the end of the 3-month stability testing, contain a total amount of compounds I-IV of not more than 5.0% w/w, relative to the amount of tasquinimod in the capsules. The stability testing consisted of keeping the capsules, in a water impermeable blister pack, at 25° C./60% RH. At the end of the stability testing, the capsules contained 0.06% w/w of compound I, less than 0.05% w/w of compound II, 0.10% of compound III and less than 0.05% w/w of compound IV, relative to the amount of tasquinimod (determined to be 0.246 mg/capsule), viz. in total less than 0.26% w/w of compounds I-IV relative to the amount of tasquinimod. Therefore, according to the selected criterion for approval, the batch of capsules was determined to be suitable for distribution.
(§2) The obtained batch of capsules was subjected to multiple assessments, viz. a first assessment comprising determining the amount of tasquinimod and the amount of compounds I, II, III and IV in a sample of the capsules directly after manufacturing, whereby the selected criterion for approving the batch for distribution was that the capsules of the sample, in a water impermeable blister pack, contain not more than in total 5% w/w of compounds I-IV relative to the amount of tasquinimod, followed by eight further, independent assessments, by determining the amount of tasquinimod and the amount of each one of compounds I, II, III and IV in a sample of the capsules at the end of a period of stability testing (by keeping the capsules, in a water impermeable blister pack, at 25° C./60% RH) of 3, 6, 9, 12, 18, 24, 36 and 48 months, respectively, whereby each time the criterion for approving the batch was that the capsules of the sample, at the end of each period of stability testing, contain a total amount of compounds I-IV of not more than 5.0% w/w, relative to the amount of tasquinimod in the capsules.

[2] = Drug product stability studies (general observations)
Text: In a drug product, compound I is formed with compound II from hydrolysis of tasquinimod. […] Compound II is further decarboxylated to form compound III.
Compound III is the decarboxylated species formed from the degradation of compound II.
The mechanism for formation of compound IV in a drug product is unknown.

[3] = Assessment of capsules after manufacture: amount of tasquinimod and of decomposition products; settings: 0 months (after manufacturing)
Text: as §1
The obtained batch of capsules was assessed by determining the amount of tasquinimod and the amount of compound III in a sample of the capsules. The selected criterion for approving the batch was that the capsules of the sample contain not more than 1.0% w/w of compound III relative to the amount of tasquinimod. […] Therefore, according to the selected criterion for approval, the batch of capsules was determined to be suitable for distribution.
The obtained batch of capsules was assessed by determining the amount of tasquinimod and the amount of compounds I, II, III and IV in a sample of the capsules. The selected criterion for approving the batch was that the capsules of the sample contain not more than in total 5% w/w of compounds I-IV relative to the amount of tasquinimod. […] Therefore, according to the selected criterion for approval, the batch of capsules was determined to be suitable for distribution.
as §2

**Q.** For COc1cccc2c1c(O)c(C(=O)O)c(=O)n2C [Compound II, 4-hydroxy-5-methoxy-1-methyl-2-oxo-1,2-dihydroquinoline-3-carboxylic acid], which “amount of decomposition product (each of compounds I-IV) in capsules, relative to the amount of tasquinimod” value ([1]; 0.25 mg capsules of Example 19, 18 months) is on record?
**A.** 0.05 % w/w

**Q.** What about the “amount of decomposition product (each of compounds I-IV) in capsules, relative to the amount of tasquinimod” value ([1]; 0.25 mg capsules of Example 19, 24 months) of the same molecule?
**A.** 0.05 % w/w

**Q.** And the “amount of decomposition product (each of compounds I-IV) in capsules, relative to the amount of tasquinimod” value ([1]; 0.25 mg capsules of Example 19, 36 months)?
**A.** 0.06 % w/w

**Q.** And the “amount of decomposition product (each of compounds I-IV) in capsules, relative to the amount of tasquinimod” value ([1]; 0.25 mg capsules of Example 19, 48 months)?
**A.** 0.06 % w/w

**Q.** And the “Decomposition products (% w/w), relative to the amount of tasquinimod in capsule” value ([1]; 0.5 mg capsules of Example 28, 3 months)?
**A.** <0.05 % w/w

**Q.** And the “Decomposition products (% w/w), relative to the amount of tasquinimod in capsule” value ([1]; 0.5 mg capsules of Example 28, 6 months)?
**A.** <0.05 % w/w

**Q.** And the “Decomposition products (% w/w), relative to the amount of tasquinimod in capsule” value ([1]; 0.5 mg capsules of Example 28, 9 months)?
**A.** <0.05 % w/w

**Q.** What about the “Decomposition products (% w/w), relative to the amount of tasquinimod in capsule” value ([1]; 0.5 mg capsules of Example 28, 12 months) of the same molecule?
**A.** <0.05 % w/w

**Q.** And the “Decomposition products (% w/w), relative to the amount of tasquinimod in capsule” value ([1]; 0.5 mg capsules of Example 28, 18 months)?
**A.** <0.05 % w/w

**Q.** And the “Decomposition products (% w/w), relative to the amount of tasquinimod in capsule” value ([1]; 0.5 mg capsules of Example 28, 24 months)?
**A.** <0.05 % w/w

**Q.** What about the “Decomposition products (% w/w), relative to the amount of tasquinimod in capsule” value ([1]; 0.5 mg capsules of Example 28, 36 months) of the same molecule?
**A.** <0.05 % w/w

**Q.** What about the “Decomposition products (% w/w), relative to the amount of tasquinimod in capsule” value ([1]; 0.5 mg capsules of Example 28, 48 months) of the same molecule?
**A.** <0.05 % w/w

**Q.** And the “Decomposition products (% w/w), relative to the amount of tasquinimod in capsule” value ([1]; 1.0 mg capsules of Example 29, 3 months)?
**A.** <0.05 % w/w

**Q.** And the “Decomposition products (% w/w), relative to the amount of tasquinimod in capsule” value ([1]; 1.0 mg capsules of Example 29, 6 months)?
**A.** <0.05 % w/w

**Q.** And the “Decomposition products (% w/w), relative to the amount of tasquinimod in capsule” value ([1]; 1.0 mg capsules of Example 29, 9 months)?
**A.** 0.06 % w/w

**Q.** What about the “Decomposition products (% w/w), relative to the amount of tasquinimod in capsule” value ([1]; 1.0 mg capsules of Example 29, 12 months) of the same molecule?
**A.** 0.06 % w/w

**Q.** And the “Decomposition products (% w/w), relative to the amount of tasquinimod in capsule” value ([1]; 1.0 mg capsules of Example 29, 18 months)?
**A.** 0.06 % w/w

**Q.** And the “Decomposition products (% w/w), relative to the amount of tasquinimod in capsule” value ([1]; 1.0 mg capsules of Example 29, 24 months)?
**A.** 0.06 % w/w

**Q.** And the “Decomposition products (% w/w), relative to the amount of tasquinimod in capsule” value ([1]; 1.0 mg capsules of Example 29, 36 months)?
**A.** 0.07 % w/w

**Q.** What about the “Decomposition products (% w/w), relative to the amount of tasquinimod in capsule” value ([1]; 1.0 mg capsules of Example 29, 48 months) of the same molecule?
**A.** 0.08 % w/w

**Q.** And the “change of the amount of the compound in tasquinimod drug product on storage” value [2]?
**A.** slight increase

**Q.** What about the “Decomposition products (% w/w), relative to the amount of tasquinimod in capsule” value ([3]; 0.5 mg capsules of Example 28) of the same molecule?
**A.** <0.05 % w/w

**Q.** What about the “Decomposition products (% w/w), relative to the amount of tasquinimod in capsule” value ([3]; 1.0 mg capsules of Example 29) of the same molecule?
**A.** <0.05 % w/w

— patent US20240277693A1, “A PHARMACEUTICAL PRODUCT CONTAINING TASQUINIMOD AND A METHOD FOR ASSESSING THE PURITY OF SAID PRODUCT” (ACTIVE BIOTECH AB, priority 2021, published 2024)
